From patent US20130197073A1, “HYPOCHOLESTEROLEMIC, ANTI-INFLAMMATORY AND ANTIEPILEPTIC NEUROPROTECTIVE COMPOUND” (NEURON BIOPHARMA, S.A., priority 2010, published 2013)
Where two headings read alike, the source gives them in different places.

What was measured:
[1] = test system: human neuroblastoma SK-N-MC cells; test: Protection against neuronal death induced by 3-nitropropionic acid (inhibition of succinate dehydrogenase), WST-1; assay type: cell-based; settings: NST0060 at 40 μM; 30 μM 3-NP, 22 hours; significant in the range of 4 to 40 μM
Experimental: (§1) The assay was performed on human neuroblastoma SK-N-MC cells in culture, maintained as described in section 2.1.
The inhibition caused by compound NST0060 with respect to cell death caused by treatment with 3-nitropropionic (3-NP) acid was analyzed. 3-NP is an irreversible inhibitor of the succinate dehydrogenase enzyme which in animal models causes oxidative stress and apoptotic cell death in the striatum and mimics neurochemical and anatomical changes associated with Huntington's disease (HD). These cells, not exceeding 15 passages, were seeded on 96-well plates treated for adherent cells with a cell concentration of 5×10^4 cells/well; 3 wells of the plate were seeded for each assay condition.
(§2) After 24 hours of cell incubation (at 37° C. and 5% CO2), the cell treatments were performed with 100 μl of total volume for the following conditions: • Control: culture medium (medium) • 3-Nitropropionic (3-NP): medium plus 30 μM 3-NP, causing death of 50% of the cells. • 3-NP plus NST0060: medium plus 3-NP (30 μM) plus NST0060 at 1, 4, 10, 40 or 100 μM.
(§3) The cells were incubated (at 37° C. and 5% CO2) with these treatments for 22 hours, after which time WST-1 reagent (Roche) was added. The WST-1 test is based on the measurement of metabolic activity (method described in section 2.1).

[2] = test system: zebrafish (Danio rerio, AB strain) embryos; settings: in vivo
Experimental: The study of this parameter (cardiotoxicity) not only determines the heart rate of the animals but also it allows determining heart beat alterations (tachycardia, bradycardia, etc.) or heart development anomalies (pericarditis, atrophy, hypertrophy, etc.).
The determination of the heart rate of the zebrafish embryos or larvae is performed visually. The heart beat (with the help of a manual counter) is counted for a period of 15 seconds by means of a magnifying glass (magnifications of 4-40×). The heartbeat of 12 of the 30 animals used per treatment in total is counted. The number of beats obtained is multiplied by 4 to obtain the number of heart beats per minute of the animal.

[3] = test system: human neuroblastoma SK-N-MC cells; test: Protection against neuronal death induced by oxidative stress (xanthine/xanthine oxidase), WST-1; assay type: cell-based; settings: NST0060 at 10 μM; 10 μM xanthine/60 mU/mL xanthine oxidase, 22 hours; protection significant from 1 to 40 μM
Experimental: The assay was performed on human neuroblastoma SK-N-MC cells in culture from the American Type Culture Collection (ATCC), in all cases strict rules of sterility were followed and the manipulation was performed in class II biological safety cabinets following European standard EN 12469. The cells were maintained in the following culture medium: Minimum Essential Medium Eagle (MEM) supplemented with 1 mM sodium pyruvate, 2 mM L-glutamine, 0.1 mM non-essential amino acids, 0.05 mg/ml gentamicin and 10% fetal bovine serum.
The inhibition caused by compound NST0060 with respect to cell death caused by treatment with xanthine/xanthine oxidase which generates oxidative damage (produces free radicals such as hydrogen peroxide, superoxide anion, hydroxyl radical), which triggers cell death, was analyzed. These cells, not exceeding 15 passages, were seeded on 96-well plates treated for adherent cells with a cell concentration of 5×10^4 cells/well; 3 wells of the plate were seeded for each assay condition. […]
The cells were incubated (at 37° C. and 5% CO2) with these treatments for 22 hours, after which time WST-1 reagent (Roche) was added. […] The formazan which is formed can be detected colorimetrically since it has an absorbance of 440 nm. The reading was taken in a plate reader at 440 nm 2 hours after adding the reagent.

[4] = test system: human neuroblastoma SK-N-MC cells; test: Protection against neuronal death induced by okadaic acid (inhibition of protein phosphatase-1), WST-1; assay type: cell-based; settings: NST0060 at 10 μM; 20 nM OA, 22 hours; significant with 4 and 10 μM
Experimental: as §1
The inhibition caused by compound NST0060 with respect to cell death caused by treatment with okadaic acid (OA) which inhibits the activity of protein phosphatase-1 (PP1) was analyzed. OA is one of the most widely used drugs for studying the phosphorylation mechanism of the tau protein, involved in the pathogenesis and progression of AD. Inhibition of PP1 causes cytoskeleton alterations and mitochondrial damage. These cells, not exceeding 15 passages, were seeded on 96-well plates treated for adherent cells with a cell concentration of 5×10^4 cells/well; 3 wells of the plate were seeded for each assay condition.
as §2, with “Okadaic acid (OA):” for “3-Nitropropionic (3-NP):”, “20 nM OA,” for “30 μM 3-NP,”, “OA” for “3-NP”, “OA (20 nM)” for “3-NP (30 μM)”
as §3

male C57BL6 mice = test: LPS model of systemic shock in mice, survival and symptomatology score; assay type: in vivo; settings: LPS 8 mg/kg i.p.
Experimental: To that end an additional assay was carried out in which all the animals included were 12-week old male C57BL6 mice. The experiments were carried out strictly complying with the standard entitled Guidance on the Operation of Animals (Scientific Procedures, Act. 1986). The animals were subjected to their respective quarantine period and were treated with maximum precaution to minimize possible contaminations during treatments and handling.
The mice were split up into three experimental groups: control group (n=8); control+LPS group (n=16); NST0060+LPS group (n=16). The mice were i.p. administered two doses of 50 mg/kg of NST0060 (in its lactone form) spaced out 12 hours from one another. 0.5% methyl cellulose in physiological saline, which was administered to the mice in the control groups with the same administration regimen, was used as a vehicle. Peripheral systemic inflammation was induced one hour after the last treatment by means of a single i.p. injection of LPS at 8 mg/kg. Half the mice in which systemic shock was induced (8 animals from the control+LPS group and 8 animals from the NST0060+LPS group) were sacrificed 2 hours after the inoculation of the LPS. Blood was taken and plasma was obtained, and both were frozen. […] The concentration of the inflammatory cytokines TNFα and IL-1β was evaluated in the plasma obtained by means of ELISA.

For `CCCC(CCC)C(=O)O[C@H]1C[C@@H](C)C=C2C=C[C@H](C)[C@H](CC[C@@H]3C[C@@H](O)CC(=O)O3)[C@H]21` [NST0060, 2-propylpentanoic acid (1S,3R,7S,8S,8aR)-1,2,3,7,8,8a-hexahydro-3,7-dimethyl-8-[2-[(2R,4R)-tetrahydro-4-hydroxy-6-oxo-2H-pyran-2-yl]ethyl]-1-naphthalenyl ester], the “protection against cell death caused by 3-NP” value [1] was 32%, the “heart rate with respect to the controls” value ([2]; AB, zebrafish (Danio rerio), 3 mg/kg, 72 h) was “not at the dose of 3 mg/Kg” and the “heart rate with respect to the controls” value ([2]; 10 mg/kg) was “decrease of the heart rate is detected”. For the same compound, the “maximum protection against cell death caused by XXO” value [3] was 80%, the “protection against cell death caused by OA” value [4] was 83% and the “survival rate / mortality induced by LPS” value (male C57BL6 mice; two i.p. doses of 50 mg/kg (lactone form), observed 15 days) was “mortality induced by LPS is prevented in a statistically significant manner”. The “score associated with the symptomatology (0 to 3)” value (male C57BL6 mice; two i.p. doses of 50 mg/kg, statistically significant at 24 hours) was “lower severity of the systemic shock process”.
